Data reported in PubChem BioAssay AID1552 (Sanford-Burnham Center for Chemical Genomics, 2009).
Calls of active or inactive are those of the source. The rule behind the calls is not given here.

target: Ubiquitin-conjugating enzyme E2 N (Homo sapiens) (UniProt P61088); experiment: NMR detection of UBE2N ligand binding – biophysical, purified protein (AID 1552); conditions: NMR binding to purified UBE2N
Sequence (P61088 whole entry, looked up): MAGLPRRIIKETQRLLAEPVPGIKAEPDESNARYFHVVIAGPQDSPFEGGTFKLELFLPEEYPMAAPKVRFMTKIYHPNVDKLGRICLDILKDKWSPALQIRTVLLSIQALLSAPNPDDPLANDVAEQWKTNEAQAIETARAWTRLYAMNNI

**Q.** How did the Kd turn out when `Cc1cc(=O)n2[nH]c(COc3ccccc3)nc2n1` was run?
**A.** The Kd was > 4 mM (inactive).

**Q.** `Cc1nnc(SCC(=O)N2CCCCC2)s1` was tested. Which Kd did it give?
**A.** Its Kd is > 4 mM (inactive).

**Q.** `O=C1CN(C(=O)c2ccccc2)c2ccccc2N1` was tested. Which Kd did it give?
**A.** Its Kd is > 4 mM (inactive).

**Q.** For `CNC(=O)C1CCCN(S(C)(=O)=O)C1` (stereo unspecified), which Kd is on record?
**A.** Its Kd is > 4 mM (inactive).

**Q.** For `NC(N)=Nc1nc2ccccc2o1`, which Kd is on record?
**A.** The Kd was > 4 mM (inactive).

**Q.** Which Kd does the source give for `Cc1cc(C)n(-c2ccc(N)cc2)n1` here?
**A.** The Kd was > 4 mM (inactive).

**Q.** Which Kd does the source give for `O=C(O)CS(=O)(=O)c1ccccc1` here?
**A.** The Kd was > 4 mM (inactive).

**Q.** With `CC(=O)O[C@@H]1CC2C(C)(C)CCC(=O)[C@]2(C)C2CC[C@@]3(C)[C@H](c4ccoc4)OC(=O)C4OC43[C@@]21C` (stereo partly specified) as the compound, how does the Kd read?
**A.** Its Kd is > 4 mM (inactive).

**Q.** How did the Kd turn out when `c1cc(C(N2CCOCC2)N2CCOCC2)ccn1` was run?
**A.** Its Kd is > 4 mM (inactive).

**Q.** Which Kd does the source give for `Cc1ccc(C(=O)n2cnnc2N)cc1C` here?
**A.** The Kd was > 4 mM (inactive).

**Q.** Which Kd does the source give for `CN1CCN(C(=O)C2CCCNC2)CC1` (stereo unspecified) here?
**A.** Its Kd is > 4 mM (inactive).

**Q.** Which Kd does the source give for `CC1(C)C(=O)C=C[C@@]2(C)C1C=C[C@]1(C)C2CC[C@@]2(C)[C@H](c3ccoc3)OC(=O)C3OC321` (stereo partly specified) here?
**A.** Its Kd is > 4 mM (inactive).

**Q.** With `OCC1CCN(c2ncccn2)CC1` as the compound, how does the Kd read?
**A.** The Kd was > 4 mM (inactive).

**Q.** With `COC(=O)c1ccccc1C` as the compound, how does the Kd read?
**A.** The Kd was > 4 mM (inactive).

**Q.** `CCOC(=O)C1C(C=C(C)C)C1(C)C` (stereo unspecified) was tested. Which Kd did it give?
**A.** Its Kd is > 4 mM (inactive).

**Q.** Which Kd does the source give for `c1ccc(-c2noc(-c3ccc4c(c3)OCO4)n2)nc1` here?
**A.** Its Kd is > 4 mM (inactive).

**Q.** With `Cc1ccn(S(=O)(=O)c2ccc(F)cc2)n1` as the compound, how does the Kd read?
**A.** Its Kd is > 4 mM (inactive).

**Q.** `O=C(O)c1ccc2nsnc2c1` was tested. Which Kd did it give?
**A.** The Kd was > 4 mM (inactive).

**Q.** For `O=C1NC(=O)/C(=C\c2ccncc2)S1`, which Kd is on record?
**A.** Its Kd is > 4 mM (inactive).

**Q.** For `CC(=O)NCC1OCCc2ccccc21` (stereo unspecified), which Kd is on record?
**A.** Its Kd is > 4 mM (inactive).

**Q.** For `S=C(Nc1ccc2nccnc2c1)N1CCOCC1`, which Kd is on record?
**A.** The Kd was > 4 mM (inactive).

**Q.** How did the Kd turn out when `Cc1nn2c(nc1=O)SCC2(O)c1ccccc1` (stereo unspecified) was run?
**A.** Its Kd is > 4 mM (inactive).

**Q.** Which Kd does the source give for `COC(=O)C1=C(C)N(c2cccc(C(C)=O)c2)C(=O)C1` here?
**A.** The Kd was > 4 mM (inactive).

**Q.** `Cc1nc2ccccc2c(=O)n1N1C(=O)CCCC1=O` was tested. Which Kd did it give?
**A.** The Kd was > 4 mM (inactive).

**Q.** For `Cn1c(=O)c2c(ncn2CCNC2=NCCC2)n(C)c1=O`, which Kd is on record?
**A.** The Kd was > 4 mM (inactive).

**Q.** Which Kd does the source give for `O=C(O)c1cc2ccccc2cn1` here?
**A.** The Kd was > 4 mM (inactive).

**Q.** Which Kd does the source give for `COc1ccc(-c2cc(=O)c3c(O)cc(O)c(-c4cc(-c5cc(=O)c6c(O)cc(O)cc6o5)ccc4OC)c3o2)cc1` here?
**A.** The Kd was > 4 mM (inactive).

**Q.** How did the Kd turn out when `Cc1ccc(C(=O)N2CCC(C(N)=O)CC2)c(Cl)c1` was run?
**A.** The Kd was > 4 mM (inactive).

**Q.** With `CC1=C(CCC(=O)O)c2cc3nc(cc4[nH]c(cc5[nH]c(cc1n2)c(C)c5C(C)O)c(C)c4C(C)O)C(C)=C3CCC(=O)O` (stereo unspecified) as the compound, how does the Kd read?
**A.** Its Kd is > 4 mM (inactive).

**Q.** `CC(=O)Nc1ccc(-c2cn3ccsc3n2)cc1` was tested. Which Kd did it give?
**A.** Its Kd is > 4 mM (inactive).

**Q.** With `CC1(C)O[C@H]2CC(=O)OC[C@]23[C@H]2CC[C@@]4(C)[C@H](c5ccoc5)OC(=O)[C@H]5O[C@]54[C@]2(C)C(=O)C[C@@H]13` as the compound, how does the Kd read?
**A.** Its Kd is > 4 mM (inactive).

**Q.** With `O=c1[nH]c2sc3c(c2c2ncnn12)CCCC3` as the compound, how does the Kd read?
**A.** The Kd was > 4 mM (inactive).

**Q.** How did the Kd turn out when `c1ccc(Cc2nn3c(-c4ccncc4)nnc3s2)cc1` was run?
**A.** Its Kd is > 4 mM (inactive).

**Q.** Which Kd does the source give for `CC(=O)O[C@H]1C[C@@H](OC(C)=O)C(C)(C)C2C[C@@H](O)[C@]3(C)C(CC[C@@]4(C)[C@H](c5ccoc5)OC(=O)[C@H]5O[C@]543)[C@]21C` (stereo partly specified) here?
**A.** Its Kd is > 4 mM (inactive).

**Q.** Which Kd does the source give for `Cc1cc(O)c(C=O)c(O)c1C(=O)O` here?
**A.** Its Kd is > 4 mM (inactive).

**Q.** `Cc1cc(C)nc(N2CC(=O)N(C)C2=N)n1` was tested. Which Kd did it give?
**A.** Its Kd is > 4 mM (inactive).

**Q.** `COc1cc2c3cc1Oc1c(OC)c(OC)cc4c1[C@@H](Cc1cccc(c1)Oc1ccc(c(O)c1)C[C@@H]3N(C)CC2)N(C)CC4` was tested. Which Kd did it give?
**A.** Its Kd is > 4 mM (inactive).

**Q.** With `O=C(Nc1cccnc1)c1cnn2cccnc12` as the compound, how does the Kd read?
**A.** Its Kd is > 4 mM (inactive).

**Q.** With `Cc1cc(=O)n2[nH]cnc2n1` as the compound, how does the Kd read?
**A.** The Kd was > 4 mM (inactive).

**Q.** How did the Kd turn out when `CCC(=O)n1nc(-c2ccco2)nc1N` was run?
**A.** Its Kd is > 4 mM (inactive).

**Q.** For `COc1cc2c(cc1OC)C1(O)C(=O)c3ccc(O)c(C(=O)O)c3OC1CO2` (stereo unspecified), which Kd is on record?
**A.** Its Kd is > 4 mM (inactive).

**Q.** How did the Kd turn out when `CN(C)c1ccc2c(=O)[nH][nH]c(=O)c2c1` was run?
**A.** The Kd was > 4 mM (inactive).

**Q.** How did the Kd turn out when `CCn1c(=O)cc(N2CCC3(CC2)OCCO3)[nH]c1=O` was run?
**A.** The Kd was > 4 mM (inactive).

**Q.** Which Kd does the source give for `Nc1ncnc2c1ncn2CCOc1ccccc1` here?
**A.** The Kd was > 4 mM (inactive).

**Q.** `OCc1cccs1` was tested. Which Kd did it give?
**A.** Its Kd is > 4 mM (inactive).

**Q.** `CC(O)c1ccc(C(C)O)cc1` (stereo unspecified) was tested. Which Kd did it give?
**A.** The Kd was > 4 mM (inactive).

**Q.** With `Nc1ccncc1` as the compound, how does the Kd read?
**A.** Its Kd is > 4 mM (inactive).

**Q.** How did the Kd turn out when `Nc1ccc(S(=O)(=O)N2CCOCC2)cc1` was run?
**A.** The Kd was > 4 mM (inactive).

**Q.** For `CC(=O)Nc1nnc(-c2ccco2)o1`, which Kd is on record?
**A.** Its Kd is > 4 mM (inactive).

**Q.** How did the Kd turn out when `COC(=O)C(O)[C@@H]1C2(C)C(=O)[C@@H](CC3=C4CC(=O)O[C@@H](c5ccoc5)[C@]4(C)CCC32)[C@H](OC(C)=O)C1(C)C` (stereo partly specified) was run?
**A.** Its Kd is > 4 mM (inactive).

**Q.** `Nc1ccc(OCc2ccccc2)cc1` was tested. Which Kd did it give?
**A.** The Kd was > 4 mM (inactive).

**Q.** Which Kd does the source give for `CC(=O)O[C@H]1CC[C@@]2(C)C(CC[C@]3(C)C2CC=C2C4CC(C)(C)CC[C@]4(C)CC[C@]23C)C1(C)C` (stereo partly specified) here?
**A.** The Kd was > 4 mM (inactive).

**Q.** For `CC(C)(C(N)=O)/[N+]([O-])=C\c1ccccc1`, which Kd is on record?
**A.** Its Kd is > 4 mM (inactive).

**Q.** For `Cc1ccc2cc(CO)ccc2n1`, which Kd is on record?
**A.** Its Kd is > 4 mM (inactive).

**Q.** How did the Kd turn out when `O=C1c2ccccc2C(=O)N1Cc1ccco1` was run?
**A.** The Kd was > 4 mM (inactive).

**Q.** With `Cc1ccc(N)nc1` as the compound, how does the Kd read?
**A.** Its Kd is > 4 mM (inactive).

**Q.** With `O=C(Nc1nccs1)c1ccc(=O)[nH]n1` as the compound, how does the Kd read?
**A.** The Kd was > 4 mM (inactive).

**Q.** With `O=C(Nc1ccon1)c1cccc(C(F)(F)F)c1` as the compound, how does the Kd read?
**A.** The Kd was > 4 mM (inactive).

**Q.** For `COC(=O)c1scc(S(C)(=O)=O)c1-n1cccc1`, which Kd is on record?
**A.** The Kd was > 4 mM (inactive).

**Q.** How did the Kd turn out when `CCCn1cnn2c(=O)cc(C)nc12` was run?
**A.** The Kd was > 4 mM (inactive).

**Q.** How did the Kd turn out when `CSc1nc2nccc(N)n2n1` was run?
**A.** Its Kd is > 4 mM (inactive).

**Q.** `Cc1cc(S(=O)(=O)N2CCOCC2)ccc1F` was tested. Which Kd did it give?
**A.** The Kd was > 4 mM (inactive).

**Q.** Which Kd does the source give for `CC(=O)Nc1ccn(Cc2c(F)cccc2Cl)n1` here?
**A.** Its Kd is > 4 mM (inactive).

**Q.** `CC(=O)O[C@@H]1CC2C(C)(C)C(=O)C=C[C@]2(C)C2CC[C@@]3(C)[C@H](c4ccoc4)OC(=O)[C@H]4O[C@]43[C@@]21C` (stereo partly specified) was tested. Which Kd did it give?
**A.** The Kd was > 4 mM (inactive).

**Q.** For `c1nnc2c3c4c(sc3ncn12)CCCC4`, which Kd is on record?
**A.** The Kd was > 4 mM (inactive).

**Q.** With `CC(=O)c1cc2c(cc1O)OC(C)(C)C=C2` as the compound, how does the Kd read?
**A.** Its Kd is > 4 mM (inactive).

**Q.** Which Kd does the source give for `COc1cc([C@@H]2c3cc4c(cc3[C@H](O)[C@H]3COC(=O)[C@H]23)OCO4)cc(OC)c1OC` here?
**A.** Its Kd is > 4 mM (inactive).

**Q.** How did the Kd turn out when `Clc1ncc2[nH]cnc2n1` was run?
**A.** The Kd was > 4 mM (inactive).

**Q.** How did the Kd turn out when `O=C(Nc1cccnc1)N1CCOCC1` was run?
**A.** Its Kd is > 4 mM (inactive).

**Q.** How did the Kd turn out when `COc1ccc2cc1Oc1ccc(cc1)C[C@H]1c3c(cc4c(c3Oc3cc5c(cc3OC)CCN(C)[C@@H]5C2)OCO4)CCN1C` was run?
**A.** Its Kd is > 4 mM (inactive).

**Q.** How did the Kd turn out when `OCn1nnn(-c2ccccc2)c1=S` was run?
**A.** Its Kd is > 4 mM (inactive).

**Q.** `O=C(NCCCSc1ncccn1)Nc1ncccn1` was tested. Which Kd did it give?
**A.** The Kd was > 4 mM (inactive).

**Q.** With `COc1ccccc1CNc1nc2nc(C)cc(=O)n2[nH]1` as the compound, how does the Kd read?
**A.** Its Kd is > 4 mM (inactive).

**Q.** `O=S1(=O)CCC(N2CCCCC2)C1` (stereo unspecified) was tested. Which Kd did it give?
**A.** The Kd was > 4 mM (inactive).

**Q.** Which Kd does the source give for `COc1ccc(C(=O)NC2=NCCS2)cc1OC` here?
**A.** The Kd was > 4 mM (inactive).

**Q.** With `CC(Sc1ncn[nH]1)C(=O)O` (stereo unspecified) as the compound, how does the Kd read?
**A.** The Kd was > 4 mM (inactive).

**Q.** Which Kd does the source give for `O=C1NCCCC1C(=O)N/N=C/c1ccccc1` (stereo unspecified) here?
**A.** Its Kd is > 4 mM (inactive).

**Q.** With `[O-][n+]1onc2c1CCc1c-2nc(-c2ccccc2)n1O` as the compound, how does the Kd read?
**A.** Its Kd is > 4 mM (inactive).

**Q.** `O=c1[nH]nnc2sc3c(c12)CCCC3` was tested. Which Kd did it give?
**A.** The Kd was > 4 mM (inactive).

**Q.** `COc1c(O)cc2c(-c3ccccc3)cc(=O)oc2c1OC` was tested. Which Kd did it give?
**A.** The Kd was > 4 mM (inactive).

**Q.** Which Kd does the source give for `CC(=O)Oc1c(C)cc(O)c2ccccc12` here?
**A.** The Kd was > 4 mM (inactive).
